# Species on record: Rattus norvegicus
# Test: Open TG-GATES - Regimen: Daily Repeat
# Type: toxicity, organism-based, Sprague-Dawley
# Design: regimen Daily Repeat, gender Male, age 6 weeks
# Conditions: in vivo, po, route gavage; for gamma-GTP / ALP / ALT / AST / BUN / CRE / Ca / Cl / DBIL / GLC / IP / K / LDH / Na / PL / RALB / TBIL / TC / TG / TP: tissue Plasma; for APTT / Bas / Eos / Fbg / Hb / Ht / Lym / MCH / MCHC / MCV / Mono / Neu / PT / Plat / RBC / Ret / WBC: tissue Blood; for KIDNEY_L / KIDNEY_R / KIDNEY_TOTAL: tissue Kidney; for LIVER: tissue Liver
# [1] = 100 mg/kg, 72 h, dose level Low, time 3 day
# [2] = 100 mg/kg, […], dose level Low, time 7 day
# [3] = 100 mg/kg, […], dose level Low, time 14 day
# [4] = 100 mg/kg, […], dose level Low, time 28 day
compound,measurement,setting,value
COC(=O)C1=C(C)NC(C)=C(C(=O)OC)C1c1ccccc1[N+](=O)[O-] [NIFEDIPINE],gamma-GTP,"0 mg/kg, […], dose level Control, time 28 day",0.8 IU/L
same,TERMINAL_BW,[1],223 g
same,APTT,[1],17.6 s
same,Bas,[1],0%
same,Eos,[1],1%
same,Fbg,[1],281.6 mg/dL
same,Hb,[1],13.6 g/dL
same,Ht,[1],42.3%
same,Lym,[1],71.4%
same,MCH,[1],20.7 pg
same,MCHC,[1],32.3%
same,MCV,[1],64 fL
same,Mono,[1],3.4%
same,Neu,[1],23.6%
same,PT,[1],13.8 s
same,Plat,[1],130.7 x10_4/uL
same,RBC,[1],660.2 x10_4/ul
same,Ret,[1],9.2%
same,WBC,[1],96 x10_2/uL
same,KIDNEY_L,[1],0.9 g
same,KIDNEY_R,[1],0.9 g
same,KIDNEY_TOTAL,[1],1.9 g
same,LIVER,[1],11 g
same,ALP,[1],1508 IU/L
same,ALT,[1],46.6 IU/L
same,AST,[1],65.8 IU/L
same,BUN,[1],15 mg/dL
same,CRE,[1],0.2 mg/dL
same,Ca,[1],10.9 mg/dL
same,Cl,[1],107 meq/L
same,DBIL,[1],0.014 mg/dL
same,GLC,[1],173.4 mg/dL
same,IP,[1],6.8 mg/dL
same,K,[1],4.5 meq/L
same,LDH,[1],88.6 IU/L
same,Na,[1],143.2 meq/L
same,PL,[1],152 mg/dL
same,RALB,[1],2.7 g/dL
same,TBIL,[1],0.028 mg/dL
same,TC,[1],82.2 mg/dL
same,TG,[1],98.8 mg/dL
same,TP,[1],5.7 g/dL
same,gamma-GTP,[1],1 IU/L
same,TERMINAL_BW,[2],261.8 g
same,TERMINAL_BW,[3],322.2 g
same,TERMINAL_BW,[4],378.4 g
same,APTT,[2],14.8 s
same,Bas,[2],0.2%
same,Eos,[2],1.4%
same,Fbg,[2],283.4 mg/dL
same,Hb,[2],13.8 g/dL
same,Ht,[2],42.1%
same,Lym,[2],73%
same,MCH,[2],20.9 pg
same,MCHC,[2],32.8%
same,MCV,[2],63.8 fL
same,Mono,[2],3%
same,Neu,[2],21.8%
same,PT,[2],13.7 s
same,Plat,[2],125.1 x10_4/uL
same,RBC,[2],659.6 x10_4/ul
same,Ret,[2],6.8%
same,WBC,[2],105.6 x10_2/uL
same,APTT,[3],19 s
same,Bas,[3],0.2%
same,Eos,[3],1%
same,Fbg,[3],260.4 mg/dL
same,Hb,[3],14.5 g/dL
same,Ht,[3],43.7%
same,Lym,[3],72.4%
same,MCH,[3],21.1 pg
same,MCHC,[3],33.2%
same,MCV,[3],63.6 fL
same,Mono,[3],2.8%
same,PT,[3],14 s
same,Plat,[3],113.8 x10_4/uL
same,RBC,[3],688 x10_4/ul
same,Ret,[3],5.4%
same,WBC,[3],110.8 x10_2/uL
same,APTT,[4],17.6 s
same,Bas,[4],0%
same,Eos,[4],1%
same,Fbg,[4],281.6 mg/dL
same,Hb,[4],13.6 g/dL
same,Ht,[4],42.3%
same,Lym,[4],71.4%
same,MCH,[4],20.7 pg
same,MCHC,[4],32.3%
same,MCV,[4],64 fL
same,Mono,[4],3.4%
same,Neu,[4],23.6%
same,PT,[4],13.8 s
same,Plat,[4],130.7 x10_4/uL
same,RBC,[4],660.2 x10_4/ul
same,Ret,[4],9.2%
same,WBC,[4],96 x10_2/uL
same,KIDNEY_L,[2],1.1 g
same,KIDNEY_R,[2],1.1 g
same,KIDNEY_TOTAL,[2],2.1 g
same,KIDNEY_L,[3],1.2 g
same,KIDNEY_R,[3],1.2 g
same,KIDNEY_TOTAL,[3],2.5 g
same,KIDNEY_L,[4],1.3 g
same,KIDNEY_R,[4],1.3 g
same,KIDNEY_TOTAL,[4],2.6 g
same,LIVER,[2],13.2 g
same,LIVER,[3],15 g
same,LIVER,[4],15.4 g
same,ALP,[2],1407 IU/L
same,ALT,[2],47 IU/L
same,AST,[2],67.4 IU/L
same,BUN,[2],17.4 mg/dL
same,CRE,[2],0.2 mg/dL
same,Ca,[2],10.7 mg/dL
same,Cl,[2],106.2 meq/L
same,DBIL,[2],0.014 mg/dL
same,GLC,[2],174.8 mg/dL
same,IP,[2],6.8 mg/dL
same,K,[2],4.2 meq/L
same,LDH,[2],86.4 IU/L
same,Na,[2],143.8 meq/L
same,PL,[2],144 mg/dL
same,RALB,[2],2.7 g/dL
same,TBIL,[2],0.028 mg/dL
same,TC,[2],77.4 mg/dL
same,TG,[2],93.4 mg/dL
same,TP,[2],5.9 g/dL
same,gamma-GTP,[2],1 IU/L
same,ALP,[3],1646.4 IU/L
same,ALT,[3],44.4 IU/L
same,AST,[3],71.4 IU/L
same,BUN,[3],17.6 mg/dL
same,CRE,[3],0.2 mg/dL
same,Ca,[3],11 mg/dL
same,Cl,[3],105.8 meq/L
same,DBIL,[3],0.012 mg/dL
same,GLC,[3],177.4 mg/dL
same,IP,[3],6.7 mg/dL
same,K,[3],4.2 meq/L
same,LDH,[3],46.2 IU/L
same,Na,[3],143.2 meq/L
same,PL,[3],149.6 mg/dL
same,RALB,[3],2.7 g/dL
same,TBIL,[3],0.026 mg/dL
same,TC,[3],73.6 mg/dL
same,TP,[3],5.9 g/dL
same,gamma-GTP,[3],1 IU/L
same,ALP,[4],1032.8 IU/L
same,ALT,[4],39.6 IU/L
same,AST,[4],71.2 IU/L
same,BUN,[4],17.2 mg/dL
same,CRE,[4],0.3 mg/dL
same,Ca,[4],10.4 mg/dL
same,Cl,[4],107.4 meq/L
same,DBIL,[4],0.012 mg/dL
same,GLC,[4],167.8 mg/dL
same,IP,[4],5.6 mg/dL
same,K,[4],3.9 meq/L
same,LDH,[4],61.8 IU/L
same,Na,[4],143.8 meq/L
same,PL,[4],135 mg/dL
same,RALB,[4],2.8 g/dL
same,TBIL,[4],0.024 mg/dL
same,TC,[4],64.6 mg/dL
same,TG,[4],117.8 mg/dL
same,TP,[4],6.1 g/dL

# From ChEMBL document CHEMBL3885861, “Open TG-GATES”
